Data from US12167995B2, “[((1R,2S,5R)-2-isopropyl-5-methyl-cyclohexanecarbonyl)-amino]-acetic acid isopropyl ester for treatment of chronic cough” (AXALBION SA, priority 2019, dated 2024).
Entries after “also recorded” stand apart in the source; their conditions may differ.

What was measured:
[1] = system: capsaicin-induced cough; test: Capsaicin-induced cough in awake guinea pig; format: in vivo
Experimental: AX-8's antitussive effect was evaluated in a standardized guinea pig model of cough (see, e.g., Brozmanova et al., 2012; Dong et al., 2016). Guinea pigs were placed in a plethysmography chamber and exposed for 10 minutes to nebulized capsaicin solution (0.1 mM) to induce cough. The cough frequency was detected as a transient change in airflow in the chamber and the signal recorded via a pressure transducer and computer. Additionally, the audio-amplified count was also recorded electronically. Coughs were counted for the 10-minute exposure period. The experiment was visually monitored by the investigator. A 5 mg/mL AX-8 solution was prepared by dissolving AX-8 in absolute ethanol at 200 mg/mL and then diluting in a solution of 4 mg/mL of sweet potato powder in saline (i.e., vehicle). The baseline frequency of coughing in response to exposure to capsaicin mist was recorded for the control (vehicle only) and treated (AX-8) group of animals (n=10 animals per group). Seven days later, animals were anesthetized with diethyl ether and a small animal laryngoscope was used to place the tip of a micro sprayer syringe in the oral cavity. Vehicle or AX-8 was administered into the oropharyngeal region at 75 μL per animal (n=10 animals per group). […] Ten minutes after administration, the guinea pigs were exposed to the capsaicin mist and the number of coughs recorded.

[2] = system: isolated guinea pig vagal nerves; test: Capsaicin-induced depolarization on isolated guinea pig vagal nerves (grease-gap recording)
Experimental: The vagal nerve is the main afferent pathway of the cough reflex loop. Therefore, the ability—and dependence on TRPM8—of AX-8 to inhibit the capsaicin-induced depolarization on isolated guinea pig vagal nerves was assessed. The tissue was assayed using an O2/CO2 gassed, grease-gap recording system as previously described (see, e.g., Birrell et al., 2009). Briefly, after the tissue has stabilised, it was exposed to a challenge (capsaicin, 1 μM, TRPV1 agonist for 2 minutes), then washed. This was then repeated to confirm the basal response. After washing, the tissue was incubated with vehicle or AX-8 (10 nM-1 mM) for 10 minutes. Following this, the tissue was re-challenged with capsaicin (in the presence of vehicle or AX-8).
Where the TRPM8 antagonist PF-05105679 (PF, 10 μM) was used, following the two reproducible responses to capsaicin, the nerve was incubated with the TRPM8 antagonist or vehicle (0.1% DMSO) for 10 minutes, prior to incubation with AX-8 or vehicle for 10 minutes. The nerve was then restimulated with capsaicin in the presence of PF/Vehicle and AX-8/Vehicle and the percentage of inhibition of the original response calculated. Following a wash period, the nerve was then restimulated with capsaicin to determine viability. The level of depolarization was recorded at each phase. The data were recorded as actual depolarisation levels and as a percentage inhibition (caused by the vehicle or test compound) of the mean of the initial, control recordings.

[3] = target: T1, hTRPA1 (Homo sapiens, UniProt O75762); test: FLIPR calcium assay, selectivity against hTRPA1 (expressed in CHO); format: cell-based
T1 construct: expressed in transfected cells; host or cells: CHO
T1 sequence (O75762 whole entry): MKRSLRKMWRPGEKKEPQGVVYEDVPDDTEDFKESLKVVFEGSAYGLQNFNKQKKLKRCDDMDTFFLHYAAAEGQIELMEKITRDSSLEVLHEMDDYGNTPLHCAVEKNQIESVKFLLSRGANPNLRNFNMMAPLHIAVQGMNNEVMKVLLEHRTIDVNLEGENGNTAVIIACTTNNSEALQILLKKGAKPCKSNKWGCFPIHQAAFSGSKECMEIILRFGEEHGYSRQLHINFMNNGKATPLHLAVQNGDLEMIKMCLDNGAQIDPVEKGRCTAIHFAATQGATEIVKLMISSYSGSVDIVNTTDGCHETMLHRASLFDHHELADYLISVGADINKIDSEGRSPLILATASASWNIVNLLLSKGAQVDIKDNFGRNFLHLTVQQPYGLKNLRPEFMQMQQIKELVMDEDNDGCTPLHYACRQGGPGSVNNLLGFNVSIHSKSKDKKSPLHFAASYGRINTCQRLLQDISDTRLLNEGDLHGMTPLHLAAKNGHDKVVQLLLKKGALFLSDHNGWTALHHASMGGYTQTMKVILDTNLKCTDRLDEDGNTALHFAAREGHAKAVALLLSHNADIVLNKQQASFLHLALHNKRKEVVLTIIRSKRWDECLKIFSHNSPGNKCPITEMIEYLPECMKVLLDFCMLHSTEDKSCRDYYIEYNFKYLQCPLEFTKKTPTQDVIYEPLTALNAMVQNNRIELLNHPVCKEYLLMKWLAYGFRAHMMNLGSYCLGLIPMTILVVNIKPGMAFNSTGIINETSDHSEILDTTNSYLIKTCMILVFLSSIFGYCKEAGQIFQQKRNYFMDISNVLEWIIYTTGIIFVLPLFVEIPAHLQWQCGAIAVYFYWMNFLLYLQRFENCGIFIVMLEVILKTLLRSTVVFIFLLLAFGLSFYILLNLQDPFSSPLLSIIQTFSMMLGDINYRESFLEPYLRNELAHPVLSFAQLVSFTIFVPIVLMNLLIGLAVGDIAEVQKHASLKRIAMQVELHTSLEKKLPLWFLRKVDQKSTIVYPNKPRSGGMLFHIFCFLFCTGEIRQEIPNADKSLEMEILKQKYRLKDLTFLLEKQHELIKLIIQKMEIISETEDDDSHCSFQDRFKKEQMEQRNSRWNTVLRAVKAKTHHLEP
Experimental: Similarly, selectivity against hTRPA1 (expressed in CHO) and hTRPV1 (expressed in HEK-293) was assessed using FLIPR® calcium assay (at 100 μM, i.e., 10-fold more than the concentration for maximal response; see FIG. 12). […] For the agonist effect assessment, the effect of AX-8 was evaluated in the absence of the positive control agonist. The maximal signal elicited in the presence of the respective agonist (300 μM mustard oil for TRPA1; 3 μM capsaicin for TRPV1) was set to 100% activation and the signal in the presence of the vehicle control (HB-PS) was set to 0% activation. For the antagonist effect assessment, the channels were activated with the respective positive control agonist (100 μM mustard oil for TRPA1; 0.1 μM capsaicin for TRPV1). The effects of AX-8 to inhibit the signal was examined after agonist stimulation and compared to the respective positive control antagonist (3 μM ruthenium red). For each channel, the signal elicited in the presence of the respective positive control agonist was set to 100 (0% inhibition) and the signal in the presence of the respective positive control antagonist was set to 0 (100% inhibition).

SMILES: CC(C)OC(=O)CNC(=O)[C@@H]1C[C@H](C)CC[C@H]1C(C)C [AX-8, [((1R,2S,5R)-2-isopropyl-5-methyl-cyclohexanecarbonyl)-amino]-acetic acid isopropyl ester]
- capsaicin-induced coughs after treatment ([1]; 0.375 mg/animal sprayed in oropharyngeal region 10 min before 0.1 mM capsaicin mist, Baseline (T) 25.0±2.0, n=10, p<0.01): 9.0±2.0 coughs/10 min
- effect on capsaicin-induced cough ([1]; 5 mg/mL solution, 75 μL per animal): inhibited significantly capsaicin-induced cough; also recorded: inhibits cough induced by an irritant
- inhibition of the capsaicin-induced response in the presence of TRPM8 antagonist PF-05105679 ([2]; AX-8 1 μM, PF-05105679 10 μM pre-incubated 10 min, n=4): suppressed by pre-application of the TRPM8 antagonist PF-05105679; also recorded: blocked by the selective TRPM8 inhibitor PF-05105679
- inhibition of the capsaicin-induced response (maximum) ([2]; capsaicin 1 μM, AX-8 10 nM-1 mM, 10 min incubation, n=3): up to 80%
- inhibition of the capsaicin-induced response versus concentration ([2]; capsaicin 1 μM, n=3): blocked in a dose-dependent manner
- antagonistic interaction with TRPA1 ([3]; at 100 μM, channel activated with 100 μM mustard oil, control antagonist 3 μM ruthenium red): no agonistic or antagonistic interactions
- agonistic activity on hTRPA1 ([3]; concentrations ≤100 μM, % of mustard oil maximal response, n=4): no agonistic or antagonistic interactions; also recorded: no significant agonistic activity on hTRPA1
